According to PubChem BioAssay (NCI):
Values joined by “and” are separate entries in the source; they are usually repeats but may differ in a detail not shown here. Identical values can stand only once.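 Step 1: Grow cells in 96-well plates. Step 2: Expose to compound for 48 hours at 5 concentrations. Step 3: Interpolate endpoints linearly; if unreached, use highest concentration. GI50 marks 50% less growth. TGI is the concentration that stops growth completely.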

Assays:
Experiment in all cases: NCI-60 cell line screen, 48 h
[1] = test system: BT-549 breast
[2] = test system: NCI-H226 lung
[3] = test system: SK-MEL-28 melanoma
[4] = test system: M14 melanoma
[5] = test system: UO-31 renal
[6] = test system: SK-OV-3 ovarian
[7] = test system: DU-145 prostate
[8] = test system: MOLT-4 leukemia
[9] = test system: LOX IMVI melanoma
[10] = test system: COLO 205 colon

Nc1ccccc1C#Cc1ccccc1C#Cc1cnccn1
GI50 [1]: 13.7 µM | TGI [1]: 28.7 µM | GI50 [2]: 17.2 µM | TGI [2]: 32.8 µM | GI50 [3]: 17.5 µM | TGI [3]: 32 µM | GI50 [4]: 16 µM | TGI [4]: 29.5 µM | GI50 [5]: 12.1 µM | TGI [5]: 28.1 µM | GI50 [6]: 22.2 µM | TGI [6]: 55 µM | GI50 [7]: 14.5 µM | TGI [7]: 28.1 µM | GI50 [8]: 40.8 µM | TGI [8]: > 100 µM | GI50 [9]: 17 µM | TGI [9]: 33.7 µM

Cc1ccc(NC(=O)CC2C(=O)Nc3ccccc3S2=O)c(C)c1 (centres undefined)
TGI [2]: 51.6 µM | TGI [10]: 60.5 µM | TGI [3]: > 100 µM | TGI [4]: 46.7 µM | TGI [5]: 45.3 µM | TGI [6]: 33.9 µM | TGI [8]: > 52.5 µM | TGI [9]: > 87.7 µM

COc1cc(Nc2nc3cc(C(F)(F)F)ccc3nc2C)cc(OC)c1OC
TGI [2]: 22.8 µM | TGI [10]: 25.3 µM | TGI [3]: 25.3 µM | TGI [4]: 21.3 µM | TGI [5]: 12.6 µM | TGI [6]: 30.5 µM | TGI [8]: 31 µM | TGI [9]: 10.9 µM

FC(F)(F)c1cccc(C2SCc3nc4ccccc4n32)c1 (centres undefined)
TGI [2]: > 100 µM | TGI [10]: > 100 µM | TGI [3]: > 100 µM | TGI [5]: > 100 µM | TGI [6]: 89.1 µM | TGI [8]: > 100 µM

COc1ccc(C2C3=C(COC3=O)Oc3cc4c(cc32)OCO4)cc1 (centres undefined)
TGI [10]: 63.6 µM | TGI [3]: > 100 µM | TGI [4]: > 100 µM | TGI [5]: 74 µM | TGI [6]: > 100 µM | TGI [8]: 81.1 µM | TGI [9]: > 100 µM

O=C(Cc1ccccc1)NS(=O)(=O)c1ccccc1
TGI [2]: > 100 µM | TGI [10]: > 100 µM | TGI [3]: > 100 µM | TGI [4]: > 100 µM | TGI [5]: > 100 µM | TGI [6]: > 100 µM | TGI [8]: > 100 µM | TGI [9]: > 100 µM

Cc1c(CC/C(=N\Nc2ccc([N+](=O)[O-])cc2[N+](=O)[O-])c2ccccc2)c2ccccc2n1C
TGI [2]: > 100 µM | TGI [10]: > 100 µM | TGI [3]: > 100 µM | TGI [4]: > 100 µM | TGI [5]: > 100 µM | TGI [6]: > 100 µM | TGI [8]: > 64.8 µM | TGI [9]: > 100 µM

O=NN(CCCl)C(=O)N[C@H]1CCCC[C@@H]1Cl
TGI [2]: > 100 µM | TGI [10]: > 100 µM | TGI [3]: > 100 µM | TGI [4]: > 100 µM | TGI [5]: > 100 µM | TGI [6]: > 100 µM | TGI [8]: > 100 µM

CC(C)c1ccc2nc3ccc(C(=O)NCCN4CCN(c5ccccc5)CC4)cn3c(=O)c2c1
TGI [1]: > 100 µM | TGI [2]: > 100 µM | TGI [10]: > 100 µM | TGI [3]: > 100 µM | TGI [4]: > 100 µM | TGI [5]: > 100 µM | TGI [6]: > 100 µM | TGI [7]: > 100 µM

c1ccc2c(c1)[nH]c1c2ncc2[nH]c3ccccc3c21
TGI [2]: 49.1 µM | TGI [10]: 6.83 µM | TGI [3]: 27.7 µM | TGI [4]: 7.99 µM | TGI [5]: 8.79 µM | TGI [6]: 28.7 µM | TGI [8]: 8.96 µM

CC1=Nc2ccccc2C12C(c1ccccc1)C(c1ccccc1)C(=O)N1c3ccccc3CC12 (centres undefined)
TGI [2]: > 100 µM | TGI [10]: > 100 µM | TGI [3]: > 100 µM | TGI [4]: > 100 µM | TGI [5]: > 100 µM | TGI [6]: > 100 µM | TGI [8]: > 100 µM | TGI [9]: > 100 µM

CCOC(=O)C(C(=O)OCC)=c1sc(=C(C(=O)OCC)C(=O)OCC)s1
TGI [10]: > 100 µM | TGI [3]: > 100 µM | TGI [4]: > 100 µM | TGI [6]: > 100 µM | TGI [8]: > 100 µM | TGI [9]: > 100 µM

C[CH2][Sn]([CH2]C)([O]C(=O)c1ccc(F)cc1)[O][Sn]([CH2]C)([CH2]C)[O]C(=O)c1ccc(F)cc1
GI50 [2]: 30.8 µM | TGI [2]: 87.5 µM | GI50 [10]: 59.7 µM | TGI [10]: > 100 µM | GI50 [3]: 33.9 µM | TGI [3]: > 100 µM | GI50 [4]: > 100 µM | TGI [4]: > 100 µM | GI50 [5]: > 100 µM | TGI [5]: > 100 µM | GI50 [6]: > 100 µM | TGI [6]: > 100 µM | GI50 [8]: 47.1 µM | TGI [8]: > 100 µM | GI50 [9]: 37.4 µM | TGI [9]: > 100 µM

COC(C)(C)[C@H](O)C(O)CC(C)[C@@H]1CCC23CC12CCC1[C@@]2(C)CCC(OC(C)=O)C(C)(C)C2CC(OC2OC(COC(C)=O)C(O)C(O)C2O)[C@]13C (some centres undefined)
TGI [2]: 16.9 µM | GI50 [10]: 2.17 µM | TGI [10]: 11.3 µM and 4.58 µM | GI50 [3]: 5.41 µM | TGI [3]: 12.2 µM and 18.9 µM | GI50 [4]: 3.58 µM | TGI [4]: 9.78 µM and 14.2 µM | TGI [5]: 14.5 µM and 18.6 µM | GI50 [6]: 7.76 µM | TGI [6]: 17.7 µM and 20.4 µM | GI50 [8]: 0.00625 µM | TGI [8]: 26.7 µM and 15.8 µM | GI50 [9]: 4.04 µM | TGI [9]: 9.97 µM and 15.9 µM

O=C(O)[C@@H](NS(=O)(=O)c1ccc([N+](=O)[O-])cc1)c1ccccc1
TGI [2]: > 100 µM | TGI [10]: > 100 µM | TGI [3]: > 100 µM | TGI [4]: > 100 µM | TGI [5]: > 100 µM | TGI [6]: > 100 µM | TGI [8]: > 100 µM | TGI [9]: > 100 µM

CC(C)c1cccc(C(C)C)c1NC(=O)CCC(=O)NN
TGI [2]: > 100 µM | TGI [10]: 36.1 µM | TGI [3]: > 100 µM | TGI [4]: > 100 µM | TGI [5]: > 100 µM | TGI [6]: > 100 µM | TGI [8]: > 100 µM

COc1cc(/C=C2\C[C@H]3[C@@H]4CC=C5C[C@@H](OC(C)=O)CC[C@]5(C)[C@H]4CC[C@]3(C)[C@H]2OC(C)=O)ccc1OCCN1CCCCC1
GI50 [2]: > 50 µM | TGI [2]: > 50 µM | GI50 [10]: 16.3 µM | TGI [10]: > 50 µM | GI50 [3]: 22.5 µM | TGI [3]: > 50 µM | GI50 [4]: 2.46 µM | TGI [4]: 10 µM | GI50 [5]: 11.1 µM | TGI [5]: 29.1 µM | GI50 [7]: 15.2 µM | TGI [7]: 44.4 µM | GI50 [8]: > 50 µM | TGI [8]: > 50 µM | GI50 [9]: 9.63 µM | TGI [9]: 18.5 µM

CCOC(=O)c1cc(OC(=O)CC)c2c(OC)ccc(OC)c2c1
TGI [10]: > 100 µM | TGI [3]: > 100 µM | TGI [5]: > 100 µM | TGI [6]: 91.6 µM | TGI [8]: > 100 µM

O=c1ccnc(SCc2ccc(Cl)cc2)[nH]1
TGI [1]: > 100 µM | TGI [10]: > 100 µM | TGI [3]: > 100 µM | TGI [4]: > 100 µM | TGI [5]: > 100 µM | TGI [6]: > 100 µM | TGI [7]: > 100 µM | TGI [8]: > 100 µM | TGI [9]: > 100 µM

CCCN1C(=O)CNC(=O)c2[nH]cnc21
TGI [2]: > 100 µM | TGI [10]: > 100 µM | TGI [3]: > 100 µM | TGI [4]: > 100 µM | TGI [5]: > 100 µM | TGI [6]: > 100 µM | TGI [8]: > 100 µM | TGI [9]: > 100 µM

Cn1c(=O)c2[nH]c(CCCCc3nc4c([nH]3)c(=O)n(C)c(=S)n4C)nc2n(C)c1=S
TGI [1]: > 100 µM | TGI [2]: > 100 µM | TGI [10]: > 100 µM | TGI [3]: > 100 µM | TGI [4]: > 100 µM | TGI [5]: > 100 µM | TGI [6]: > 100 µM | TGI [7]: > 100 µM | TGI [9]: > 100 µM

Cc1c(-c2nnc(-c3cc(Cl)c(Cl)cc3Cl)o2)nnn1-c1ccnc2c(C(F)(F)F)cccc12
GI50 [2]: 28.7 µM | TGI [2]: 91.7 µM | GI50 [10]: 17.4 µM | TGI [10]: 33.2 µM | GI50 [3]: 26.5 µM | TGI [3]: 75.3 µM | GI50 [4]: 26.2 µM | TGI [4]: 70.5 µM | GI50 [5]: 16.8 µM | TGI [5]: 34.7 µM | GI50 [6]: 24.5 µM | TGI [6]: 61.1 µM | GI50 [7]: 19.5 µM | TGI [7]: 41.6 µM | GI50 [8]: 36.9 µM | TGI [8]: > 100 µM | GI50 [9]: 19.7 µM | TGI [9]: 38.7 µM
